Reference: patent US6686391B2, “N-chlorophenylcarbamate and N-chlorophenylthiocarbamate compositions” (University of Arizona Foundation, priority 1995, dated 2004)
Values after ≈ are worked out from the molar mass of the structure shown. Where two headings read alike, the source gives them in different places.

Columns and labels:
lung tumor cells (A549) = assay: MTT cell viability test, lung tumor cells; assay type: cell-based; details: Homo sapiens, A549, 120 h
Protocol: (§1) The following cell culture tests were performed to test the toxicity of N-chlorophenylcarbamates and N-chlorophenylthiocarbamates compounds on colon, breast and lung human tumor cells. The viability of the cells were tested by looking at MTT (3-[4,5-dimethylthiazol-2-yl]-2,5-diphenyltetrazolium bromide) reduction. MTT assay is a well known measure of cell viability.
(§2) The colon tumor cells (HT29 from American Type Culture Collection (ATCC)) and the breast cells (MX1 from cell lines from ATCC) were cultured in Eagle's Minimal Essential Medium with 10% fetal bovine serum. The lung tumor cells (A549 from ATCC cell lines) were cultured in Ham's F12 medium with 10% fetal bovine serum.
(§3) The tumor cells were passaged and seeded into culture flasks at the desired cell densities. The culture medium was decanted and the cell sheets were washed twice with phosphate buffered saline (PBS). The cells were trypsinized and triturated prior to seeding the flasks. Unless otherwise indicated the cultures were incubated at 37±1° C. in a humidified atmosphere of 5±1% carbon dioxide in air. The cultures were incubated until they were 50-80% confluent.
(§4) The cells were subcultured when the flasks were subconfluent. The medium was aspired from the flasks and the cell sheets rinsed twice with PBS. Next, the Trypsin Solution was added to each flask to cover the cell sheet. The Trypsin Solution was removed after 30-60 seconds and the flasks were incubated at room temperature for two to six minutes. When 90% of the cells became dislodged, growth medium was added. The cells were removed by trituration and transferred to a sterile centrifuge tube. The concentration of cells in the suspension was determined, and an appropriate dilution was made to obtain a density of 5000 cells/ml. The cells were subcultured into the designated wells of the 96-well bioassay plates (200 microliter cell suspension per well). PBS was added to all the remaining wells to maintain humidity. The plates were then incubated overnight before test article treatment.
(§5) Each dose of test article was tested by treating quadruplicate wells of cultures with 100 microliter of each dilution. Those wells designated as solvent controls received an additional 100 microliters of methanol control; negative controls wells received an additional 100 microliters of treatment medium. PBS was added to the remaining wells not treated with test article or medium. The plates were then incubated for approximately 5 days. […]
(§6) The absorbance at 550 nm (OD550) of each well was measured with a Molecular Devices (Menlo Park, Calif.) VMax plate reader.
(§7) The mean OD550 of the solvent control wells and that of each test article dilution, and that of each of the blank wells and the positive control were calculated. […]

herpes [1] = assay: In vitro herpes screening model; assay type: cell-based
Fibroblasts = assay: EC-50 in normal healthy cells, fibroblasts; assay type: cell-based; details: Fibroblast
[2] = tested on: HIV replication in monocytes (chronic HIV-1 infected promonocytic cells U1); assay: HIV chronic study, chronically HIV-1 infected promonocytic U1 cells; assay type: cell-based
Protocol: (§8) Chronic HIV-1 infected promonocytic cells U1 were derived from an acute HIV-1 infection of the promonocytic cell line, U937. The chronic HIV-1 infected T-cells, ACH-2, were derived from an acute HIV-1 infection of the T cell line, A3.01.
(§9) These cells were cultured in medium and the phorbol ester, PMA. PMA causes the cells (both U1 and ACH-2) to be activated and not divide but it also causes the U-1 cells to differentiate. […] Cell viability was measured when these cell lines were treated with the test compounds.
(§10) Both cell lines constituitively produce a small amount of HIV-1. ACH-2 cell lines tend to produce more HIV-1 than U1 cells as shown by p-24 ELISA. When either cell line is cultured in the presence of PMA there is an increase in the quantity of HIV-1 produced as measured by the p-24 antigen ELISA.
(§11) In addition, the number of […] positive HIV mRNA expressing cells per microscopic field is measured. Comparisons can be made from these numbers since the same number of cells were adhered to the glass slides for each drug concentration (10×10^6 cells/ml).

herpes [3] = assay: In vivo herpes screening test; design: species or system mice
Protocol: In an in vivo herpes screening test, at a dose of 150 mg/kg dose, 60% of the mice survived with a 10.2 mean death date. The positive control was acyclovir at 75 mg/kg dose; 60% of the mice survived with a mean death date of 17.2 days.

breast cells (MX1) = assay: MTT cell viability test, breast cells; assay type: cell-based; details: Homo sapiens, 120 h
Protocol: as §1, §2, §3, §4, §5, §6, §7

breast cancer (MXI) = assay: In vivo mouse model for breast cancer
HIV = assay: Acute HIV study, in vitro acute model; assay type: cell-based; details: in vitro acute model for HIV
Protocol: In an in vitro acute model for HIV chloropropham inhibited viral replication by 47% at 10 μg/ml and AZT inhibited viral replication by 98% at 1 μg/ml. The therapeutic index for chloropropham is 2.5 compared to 12,500 for AZT. The therapeutic index is ratio of toxic dose of the drug to the efficacious dose of the drug.

[4] = tested on: breast, colon, non-small cell lung and ovarian tumors; assay: In vitro human tumor colony forming units test, continuous exposure; assay type: cell-based
Protocol: Solid tumors removed from patients are minced into 2 to 5 mm fragments and immediately placed in McCoy's Medium 5A plus 10% heat inactivated newborn calf serum plus 1% penicillin/streptomycin. Within 4 hours, these solids tumors are mechanically disassociated with scissors, forced through No. 100 stainless steel mesh, through 25 gauge needles, and then washed with McCoy's medium as described above. Ascitic, pleural, pericardial fluids and bone marrow are obtained by standard techniques. The fluid or marrow is placed in sterile containers containing 10 units of preservative free heparin per ml. of malignant fluid or marrow. After centrifugation at 150×g for 10 minutes, the cells are harvested and washed with McCoy's medium plus 10% heat inactivated calf serum. The viability of cell suspensions is determined on a hemocytometer with trypan blue.
Cells to be cloned are suspended in 0.3% agar in enriched CMRL1066 supplemented with 15% heat inactivated horse serum, penicillin (100 units/ml), streptomycin (2 mg/ml), glutamine (2 mM), insulin (3 units/ml), asparagine (0.6 mg/ml), and HEPES buffer (2 mM). For the continuous exposure test each compound is added to the above mixture. […] If there is <30% colonies in the positive control when compared to the untreated control, the test is evaluated.

influenza [5] = assay: In vivo model for influenza
[6] = tested on: HIV replication in T-cells (chronic HIV-1 infected T-cells, ACH-2); assay: HIV chronic study, chronically HIV-1 infected ACH-2 T-cells; assay type: cell-based; details: chronic HIV model, ACH-2 cells
Protocol: as §8, §9, §10, §11

Rhinovirus = assay: In vivo Rhinovirus screening test
[7] = doses from 50-400 mg/kg; 1958, 1959, 1972; cited from earlier work
Kerotinoyle Cells = assay: EC-50 in normal healthy cells, keratinocytes; assay type: cell-based; details: Keratinocyte
colon tumor cells (HT29) = assay: MTT cell viability test, colon tumor cells; assay type: cell-based; details: Homo sapiens, HT-29, 120 h
Protocol: as §1, §2, §3, §4, §5, §6, §7

influenza [8] = assay: In vitro model for influenza; assay type: cell-based
Broncheal Cells = assay: EC-50 in normal healthy cells, bronchial cells; assay type: cell-based
leukemia (P388) = assay: In vivo mouse model for leukemia
murine melanoma (B16) = assay: In vivo mouse model for murine melanoma
[9] = 75 mg/kg dose, positive control

Question: Which EC50 (lung tumor cells (A549); read-out: EC-50 Result A549, MTT, 5 day incubation, first A549 column) does the source give for `CC(C)OC(=O)Nc1cccc(Cl)c1` [Chloropropham, (3-chlorophenyl)carbamic acid 1-methylethyl ester] here?
Answer: 12.6 µg/mL (≈ 59 µM)

Question: And the EC50 (lung tumor cells (A549); read-out: EC-50 Result A549, MTT, 5 day incubation, second A549 column)?
Answer: 92.5 µg/mL (≈ 433 µM)

Question: What about the “activity in in vitro herpes screening model” value (herpes [1]) of the same molecule?
Answer: Nor was it active

Question: And the EC50 (Fibroblasts; read-out: EC-50 Fibroblasts, normal healthy cells, first value)?
Answer: > 152 µg/mL

Question: What about the EC50 (Fibroblasts; read-out: EC-50 Fibroblasts, normal healthy cells, second value) of the same molecule?
Answer: 64.2 µg/mL (≈ 300 µM)

Question: What about the “suppression of HIV replication in monocytes” value ([2]; chronic HIV model, U1 cells) of the same molecule?
Answer: 79%

Question: What about the mean death date (herpes [3]; 150 mg/kg dose) of the same molecule?
Answer: 10.2

Question: What about the mice survived (herpes [3]; 150 mg/kg dose) of the same molecule?
Answer: 60%

Question: What about the EC50 (breast cells (MX1); read-out: EC-50 Result MX1, MTT, 5 day incubation, first MX1 column) of the same molecule?
Answer: 91.8 µg/mL (≈ 430 µM)

Question: What about the EC50 (breast cells (MX1); read-out: EC-50 Result MX1, MTT, 5 day incubation, second MX1 column) of the same molecule?
Answer: 108 µg/mL (≈ 505 µM)

Question: And the “activity in in vivo mouse model for breast cancer (MXI)” value (breast cancer (MXI))?
Answer: no activity

Question: What about the inhibition at 10 µg/mL (HIV; Human immunodeficiency virus 1, 10 μg/ml, read-out: inhibition of viral replication) of the same molecule?
Answer: 47%

Question: And the “effective against tumors (fraction)” value ([4]; 100 μg/ml, continuous exposure, breast, colon, non-small cell lung and ovarian tumors)?
Answer: 6/7

Question: And the effectiveness against tumors ([4]; 1 and 10.0 μg/ml)?
Answer: not effective

Question: What about the “activity in in vivo model for influenza” value (influenza [5]) of the same molecule?
Answer: did not show activity

Question: And the “increase in HIV replication in T-cells” value [6]?
Answer: 101%

Question: And the “activity in in vivo Rhinovirus screening test” value (Rhinovirus)?
Answer: Nor was it active

Question: What about the “activity in National Cancer Institute tests” value [7] of the same molecule?
Answer: no activity

Question: What about the EC50 (Kerotinoyle Cells; read-out: EC-50 Kerotinoyle Cells, normal healthy cells, first value) of the same molecule?
Answer: 3.9 µg/mL (≈ 18.3 µM)

Question: And the EC50 (Kerotinoyle Cells; read-out: EC-50 Kerotinoyle Cells, normal healthy cells, second value)?
Answer: 13 µg/mL (≈ 60.8 µM)

Question: What about the EC50 (colon tumor cells (HT29); read-out: EC-50 Result HT29, MTT, 5 day incubation, first HT29 column) of the same molecule?
Answer: 13.3 µg/mL (≈ 62.2 µM)

Question: What about the EC50 (colon tumor cells (HT29); read-out: EC-50 Result HT29, MTT, 5 day incubation, second HT29 column) of the same molecule?
Answer: 11.4 µg/mL (≈ 53.4 µM)

Question: What about the “activity in in vitro model for influenza” value (influenza [8]) of the same molecule?
Answer: did not show activity

Question: What about the EC50 (Broncheal Cells; read-out: EC-50 Broncheal Cells, normal healthy cells, second value) of the same molecule?
Answer: > 15.2 µg/mL

Question: And the “activity in in vivo mouse model for leukemia (P388)” value (leukemia (P388))?
Answer: no activity

Question: And the “activity in in vivo mouse model for murine melanoma (B16)” value (murine melanoma (B16))?
Answer: no activity

Question: What does the source list for `Cc1cn([C@H]2C[C@H](N=[N+]=[N-])[C@@H](CO)O2)c(=O)[nH]c1=O` [AZT, reference compound]?
Answer: action in the HIV chronic model [2]: no action; inhibition of viral replication (HIV; 1 μg/ml): 98%

Question: With `Nc1nc2c(ncn2COCCO)c(=O)[nH]1` [acyclovir, reference compound] as the molecule, how does the mean death date (herpes [3]; [9]) read?
Answer: 17.2 days

Question: What about the mice survived (herpes [3]; [9]) of the same molecule?
Answer: 60%

Question: Which EC50 (lung tumor cells (A549); MTT, 5 day incubation, first A549 column, read-out: EC-50 Result A549) does the source give for `COc1cccc2c1C(=O)c1c(O)c3c(c(O)c1C2=O)C[C@@](O)(C(=O)CO)C[C@@H]3O[C@H]1C[C@H](N)[C@H](O)[C@H](C)O1` [Adriamycin, doxorubicin (adriamycin), reference compound] here?
Answer: 0.03 µg/mL (≈ 0.0552 µM)

Question: And the EC50 (lung tumor cells (A549); MTT, 5 day incubation, second A549 column, read-out: EC-50 Result A549)?
Answer: 0.009 µg/mL (≈ 0.0166 µM)

Question: What about the EC50 (Fibroblasts; normal healthy cells, first value, read-out: EC-50 Fibroblasts) of the same molecule?
Answer: 0.065 µg/mL (≈ 0.12 µM)

Question: And the EC50 (Fibroblasts; normal healthy cells, second value, read-out: EC-50 Fibroblasts)?
Answer: 0.1 µg/mL (≈ 0.184 µM)

Question: And the EC50 (breast cells (MX1); MTT, 5 day incubation, first MX1 column, read-out: EC-50 Result MX1)?
Answer: 0.02 µg/mL (≈ 0.0368 µM)

Question: And the EC50 (breast cells (MX1); MTT, 5 day incubation, second MX1 column, read-out: EC-50 Result MX1)?
Answer: 0.001 µg/mL (≈ 0.00184 µM)

Question: What about the EC50 (Kerotinoyle Cells; normal healthy cells, first value, read-out: EC-50 Kerotinoyle Cells) of the same molecule?
Answer: 0.0035 µg/mL (≈ 0.00644 µM)

Question: And the EC50 (Kerotinoyle Cells; normal healthy cells, second value, read-out: EC-50 Kerotinoyle Cells)?
Answer: 0.0093 µg/mL (≈ 0.0171 µM)

Question: What about the EC50 (colon tumor cells (HT29); MTT, 5 day incubation, first HT29 column, read-out: EC-50 Result HT29) of the same molecule?
Answer: 0.003 µg/mL (≈ 0.00552 µM)

Question: And the EC50 (colon tumor cells (HT29); MTT, 5 day incubation, second HT29 column, read-out: EC-50 Result HT29)?
Answer: 0.006 µg/mL (≈ 0.011 µM)

Question: What about the EC50 (Broncheal Cells; normal healthy cells, first value, read-out: EC-50 Broncheal Cells) of the same molecule?
Answer: 0.015 µg/mL (≈ 0.0276 µM)

Question: And the EC50 (Broncheal Cells; normal healthy cells, second value, read-out: EC-50 Broncheal Cells)?
Answer: 0.002 µg/mL (≈ 0.00368 µM)
